These results are taken from US8337899B2, “Solid pharmaceutical dispersions with enhanced bioavailability” (Bend Research, Inc., priority 1997, dated 2012).

The conditions of series [1]: solid amorphous dispersions in HPMCAS, pH 4.0; cited from earlier work.
Series [2] in a line: syringe/filter in vitro dissolution test in MFD solution. The class given is physicochemical. Conditions: for C90: concentration at 90 minutes; for MSSC (maximum supersaturated concentration): syringe/filter method, MFD solution pH 6.5, 37° C., 0.45 μm filtrate. On the procedure: This example discloses an in vitro dissolution test termed the “syringe/filter” method. In this method the concentration of test compound in solution is determined as a function of time. Test solution is held in a syringe from which samples are expelled through a filter at pre-determined time points. In between expelling samples from the syringe, the syringe is rotated (50 rpm) on a wheel held in an oven at 37° C.
A 20 GA hypodermic needle was attached to the syringe, and 10 mL of a model-fasted duodenal (MFD) solution at 37° C. was drawn into the syringe.
The MFD solution was prepared using the following procedure. […] This mixture was then mixed thoroughly by vortex mixer (Fisher Vortex Genie), and the solvent removed rapidly by roto-evaporator (Rotavapor RE121, Büchi), leaving a dry white surface dispersion coating the flask. The surface dispersion was then reconstituted with 200 mL of the 37° C. phosphate buffered saline.
The needle was then replaced with a 13 mm, 0.45 μm polyvinylidine diflouride syringe filter (Scientific Resources, Titan), and the syringe was vigorously shaken for 30 sec. After 30 sec, 6 drops of the solution was expelled and a subsequent 13 drop sample was delivered to a test tube. After expelling the sample, the syringe plunger was drawn back to pull an air bubble into the syringe to aid in subsequent mixing and the syringe placed back on a rotating wheel in a 37° C. oven. […] The remaining solution in the syringe was mixed by rotating on a wheel at 50 rpm in a 37° C. temperature-controlled box.

The nature of series [3]: centrifuge in vitro dissolution test in MFD solution. The series is classed as physicochemical. Conditions: centrifuge method; for MSSC (maximum supersaturated concentration): MFD solution pH 6.5, 37° C., supernatant; for C90: concentration at 90 minutes; for C1200: concentration at 1200 minutes. On the procedure:
This example discloses an in vitro dissolution test termed the “centrifuge” method. This method was used to test the dissolution of material made by essentially the same method as that described in Example 1 except that the concentration of Compound 1 was decreased by a factor of 2 to 66.5 mg such that the ratio of compound to polymer was 1:1. (see Example 7, Table I).
In a 37° C. controlled temperature box, 1.8 mg of solid product from Example 1 was accurately weighed into an empty microcentrifuge tube (polypropylene, Sorenson Bioscience Inc.). The theoretical maximum concentration of compound in solution (e.g., if all compound dissolved) was 383 μgA/ml [1.8 mg dispersion (1000 μg/1 mg) (0.5 μg compound/μg dispersion) (0.764 compound assay)/1.8 ml=[…]]. This value is termed the theoretical maximum supersaturated concentration and is abbreviated Theoretical MSSC. 1.8 mL of a 37C phosphate buffered saline solution (8.2 mM NaCl, 1.1 mM Na2HPO4, 4.7 mM KH2PO4, pH 6.5, 290 mOsm/kg) containing 14.7 mM sodium taurocholic acid (Fluka) and 2.8 mM 1-palmitoyl-2-oleoyl-sn-glycero-3-phosphocholine (Avanti Polar Lipids) was added to the tube. The centrifuge tube was closed and a timer was started. The tube was then mixed continuously at the highest speed on a vortex mixer (Fisher Vortex Genie 2) for 60 seconds. The tube was transferred to a centrifuge (Marathon, Model Micro A) allowed to stand undisturbed for six minutes, then centrifuged at 13,000 G for 60 seconds. A 25 uL sample was removed from the solids-free supernatant in the centrifuge tube via pipette (Gilson Pipetman P-100) ten minutes after the timer was started. Solids in the centrifuge tube were resuspended by mixing the sample continuously on the vortex mixer for 30 seconds. The centrifuge tube was returned to the centrifuge and allowed to stand undisturbed until the next sample was taken. Each sample was centrifuged, sampled and resuspended as described previously. Each sample was diluted 1:1 with a solution containing 60/40 1.7 wt % ammonium ascorbate/acetonitrile, and the concentration of compound was determined by HPLC (Hewlett Packard 1090 HPLC, Phenomenex Ultracarb ODS 20 analytical column, absorbance measured at 215 nm with a diode array spectrophotometer). […] […] The maximum compound concentration observed, 125 μgA/ml, is termed the maximum supersaturated concentration of compound and is abbreviated MSSC.

A short description of series [4]: aqueous solubility. The series is classed as physicochemical. Conditions: pH 6.5.

On to `CC[C@H]1OC(=O)C[C@@H](O)[C@H](C)[C@@H](O[C@@H]2O[C@H](C)[C@@H](O[C@H]3C[C@@](C)(O)[C@@H](OC(=O)Cc4ccc(OC)cc4)[C@H](C)O3)[C@H](N(C)C)[C@H]2O)[C@@H](CC=O)C[C@@H](C)C(=O)/C=C/C(C)=C/[C@@H]1CO[C@@H]1O[C@H](C)[C@@H](O)[C@@H](OC)[C@H]1OC` [MAT, 4″-0-(4-methoxyphenyl)acetyltylosin], for which, in series [1], the “supersaturated concentration relative to crystalline MAT” value was 9 fold.
`COC1=CC(=O)CC(C)C12Oc1c(Cl)c(OC)cc(OC)c1C2=O` (stereo not drawn) [Example C11, 7-chloro-4,6-dimethoxy-courmaran-3-one-2-spiro-1′-(2′-methoxy-6′-methylcyclohex-2′en-4′-one)] displayed a C60 in series [2] (concentration at 60 minutes, syringe/filter, MFD, 37° C.) of 17 μgA/mL. The molecule also gave a C90 in series [2] (syringe/filter, MFD, 37° C.) of 15 μgA/mL. Further, in series [2], the “MSSC (maximum supersaturated concentration)” value (“MSSC” below) was 18 μgA/mL.
Take `CCC(CC)Oc1cc(C)nc(Oc2c(C)cc(C)cc2C)c1C` [Example C5]: in series [3], the “MSSC” value turned out to be 18 μgA/mL, the C90 came to 18 μgA/mL and the C1200 is 13 μgA/mL.
`Cc1ccc2c(c1)N(CC(=O)NC(C)(C)C)C(=O)C(NC(=O)Nc1cccc(Cl)c1)CC2c1ccccc1` (stereo not drawn) [N-tert-butyl-2-{3-[3-(3-chloro-phenyl)-unreido]-8-methyl-2-oxo-5-phenyl-2,3,4,5-tetrahydrobenxo[b]azepin-1-yl}-acetamide]: in series [4], the aqueous solubility result was “less than 3.0 μg/ml”.
In turn, `CON(C)C(=O)C(O)[C@H](Cc1ccccc1)NC(=O)c1cc2cc(Cl)ccc2[nH]1` (stereo in doubt) [Example C1, [R—(R*,S*)]-5-chloro-N-[2-hydroxy-3-(methoxymethylamino)-3-oxo-1-(phenylmethyl)propyl]-1-H-indole-2-carboxamide] showed a C90 in series [2] (syringe/filter, MFD, 37° C.) of 10 μgA/mL. The molecule further registered a C180 in series [2] (concentration at 180 minutes, syringe/filter, MFD, 37° C.) of 8.5 μgA/mL. The C1200 in series [2] (concentration at 1200 minutes, syringe/filter, MFD, 37° C.) stood at 9 μgA/mL. Also, the “MSSC” value in series [2] amounted to 10 μgA/mL.
In the case of `CON(C)C(=O)C(O)[C@H](Cc1ccccc1)NC(=O)c1cc2cc(Cl)ccc2[nH]1` (stereo in doubt) [Compound 1, [R—(R*,S*)]-5-chloro-N-[2-hydroxy-3-(methoxymethylamino)-3-oxo-1-(phenylmethyl)propyl]-1-H-indole-2-carboxamide], in series [2] (in the dissolution medium (MFD)), the equilibrium solubility is on record as 9 μgA/ml.
In series [3] (concentration at 3 minutes), `O=C1NC(=O)C(c2ccccc2)(c2ccccc2)N1` [Example C14, 5,5-diphenylhydantoin] had a C3 of 14 μgA/mL. Moreover, the C10 in series [3] (concentration at 10 minutes) is reported as 20 μgA/mL. Besides, the C20 in series [3] (concentration at 20 minutes) amounted to 28 μgA/mL. In addition, the C40 in series [3] (concentration at 40 minutes) was found to be 34 μgA/mL. The molecule further had a C90 in series [3] of 50 μgA/mL.
For `O=C(N[C@@H](Cc1ccccc1)[C@@H](O)C(=O)N1C[C@@H](O)[C@@H](O)C1)c1cc2cc(Cl)ccc2[nH]1` (relative stereo) [Example C17, 1H-Indole-2-caboxamide, 5-chloro-N-[3-(3,4-dihydroxy-1-pyrrolidinyl)-2-hydroxy-3-oxo-1-(phenylmethnyl)propyl]-, [R—[R*,S*-(cis)]]-], in series [3], the “MSSC” value is 194 μgA/mL, the C90 was 158 μgA/mL and the C1200 turned out to be 194 μgA/mL.
Consider `CCC(CC)Nc1cc(C)nc(Oc2c(C)cc(C)cc2C)c1C` [Example C16, [3,6-dimethyl-2-(2,4,6-trimethyl-phenoxy)-pyridin-4-yl]-(1-ethyl-propyl)-amine], for which, in series [3], the “MSSC” value was 22 μgA/mL, the C90 was 22 μgA/mL and the C1200 is reported as 22 μgA/mL.
